Measured values reported in patent US20160311886A1, “Constructs Binding to Phosphatidylserine and Their Use in Disease Treatment and Imaging” (Board of Regents, The University of Texas System, priority 2005, published 2016).

Key:
tumor vessels = assay: Docetaxel-induced PS exposure on tumor vessels; type: in vivo, mouse; details: after docetaxel treatment; 35% before
From the text: In such studies, docetaxel treatment of mice increased the percentage of tumor vessels that expose anionic phospholipids from 35% to 60%. No induction of PS was observed on vessels in normal tissues even after systemic treatment with docetaxel.

HUVEC and HMVEC = assay: Docetaxel-induced PS exposure on endothelial cells, FACS; type: cell-based, human
Experimental: The induction of PS exposure on endothelial cells by subclinical concentrations of docetaxel was examined in vitro by FACS analysis. […] […] Docetaxel incubations for 48 and 72 hrs were also conducted.

[1] = tested on: 3LL, Colo26, MDA-MB-435, B16, Meth A cells; assay: Docetaxel-induced PS exposure on tumor cell lines, FACS; type: cell-based, mouse, human; details: 10 nM, 24 hrs
Experimental: The in vitro induction of PS exposure by subclinical concentrations of docetaxel was also examined by FACS analysis using a panel of tumor cell lines. Mouse lewis lung carcinoma 3LL, mouse colon carcinoma Colo26 and human breast cancer MDA-MB-435 cells were treated with 10 nM of docetaxel for 24 hrs and examined by FACS. […] Docetaxel incubations for 48 and 72 hrs were also conducted.

[2] = tested on: Pan02 mouse pancreatic adenocarcinoma; assay: 3G4 and gemcitabine, pancreatic cancer; type: in vivo; details: 3G4 100 μg, gemcitabine 3.5 mg; day 22
Experimental: Pan02 mouse pancreatic adenocarcinoma cells were injected into the pancreas of immunocompetent C57BL/6 mice. Treatment was started on day 5 after tumor cell injection. […] Gemcitabine is a pyrimidine anti-metabolite. The animals were sacrificed at day 22 after tumor cell injection, and the tumor weight determined.

[3] = tested on: U937 cells infected with Vaccinia virus; type: cell-based; details: m.o.i of 2, 2 days
WiDr (colon carcinoma) = assay: WiDr colon carcinoma model; type: in vivo, mouse; details: 100 μg 3×/week from day 5; preliminary study
Experimental: Treatment was started on day 5, when the tumors were small (10 mice per group). 100 μg of each antibody was injected 3×/week and tumor growth monitored.

[4] = tested on: syngeneic prostatic tumors; assay: Bavituximab in rats with syngeneic prostatic tumors; details: rat, in vivo
human β2GPI = molecular target: T1, human β2GPI (Homo sapiens, UniProt P02749); assay: Anti-hβ2GPI ELISA; type: binding
T1 construct: Human β2GPI (hβ2GP1) was purified from human plasma essentially as described previously; from tissue; host or cells: pooled human plasma
T1 sequence (P02749 20-345): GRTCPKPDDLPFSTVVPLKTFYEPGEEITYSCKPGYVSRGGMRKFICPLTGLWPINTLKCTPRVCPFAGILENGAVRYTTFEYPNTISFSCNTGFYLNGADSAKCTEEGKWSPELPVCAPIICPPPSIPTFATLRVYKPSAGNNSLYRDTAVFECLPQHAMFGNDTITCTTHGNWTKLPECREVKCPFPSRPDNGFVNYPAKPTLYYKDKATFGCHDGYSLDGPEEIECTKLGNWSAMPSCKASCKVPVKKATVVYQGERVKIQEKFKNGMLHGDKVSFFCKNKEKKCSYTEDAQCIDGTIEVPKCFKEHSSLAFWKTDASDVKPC
Experimental: The assay was performed as described above with the following modifications. hβ2GPI, nicked hβ2GPI, or recombinant hβ2GPI peptides were coated on 96-well Immunlon 2HB microtiter plates overnight at a concentration of 10 μg/ml. Plates were then blocked in 1% OVA for 1 hr. at room temperature. […] Plates were incubated for 1 hr. at 37° C. and antibody binding was detected. All ELISA studies were performed at least three times.

[5] = Binding of ch3G4 and 2aG4 to phospholipid-coated ELISA plates; details: vs murine 3G4
Monkey safety studies = type: in vivo, cynomolgus monkeys; details: repeat dosing
Experimental: This is 100 times the calculated therapeutic dose ([…]).

[6] = Serum dependence of binding to PS
Experimental: The serum dependence or independence of the antibodies is also set forth in Table 2 (see also, Example XXX).
The 1B9, 2G7 and 7C5 antibodies behave essentially the same. These antibodies recognize only PS and require serum or serum proteins for binding to PS. The binding of 1B9, 2G7 and 7C5 to various phospholipids in the present example was assayed only in the presence of 10% bovine serum, whereas binding of the other antibodies was tested either in the absence or in the presence of serum.

[7] = Administration to atherosclerotic rabbits; details: rabbit, in vivo
MDA-MB-435 breast tumors = assay: 3G4 and chimeric 3G4 tumor treatment; type: in vivo, mouse; details: MD-MBA-435s; IP 800 μg day 15, 200 μg every two to three days, 400 μg day 35
Experimental: Tumors were also established using MD-MBA-435s cells and treated as described above. […] The treatment of large L540 tumors, MDA-MB-231 and MD-MBA-435s tumor cells for 60 days was also effective. The antibodies caused tumor vascular injury, thrombosis and necrosis and retarded tumor growth, with no evidence of toxicity.
MD-MBA-435s lucerifase cells were obtained from Dr. Angels Sierra Jimenez, Barcelona, Spain and were grown in 10% DMEM. Mice were injected with tumor cells as described as above, and at 2 weeks post injection, the tumors were measured and the volume recorded. […] Treatment was initiated by IP injection (800 μg) at day 15 and continued with injections of 200 μg every two to three days until the final injection of 400 μg at day 35. Tumor volumes and mouse body weights were measured on injection days. Mice were sacrificed and perfused with saline for 12 minutes. The organs and tumor were removed, snap-frozen in liquid nitrogen and the tumor sectioned for immunohistochemistical analysis.
Groups of 8-10 female SCID mice were injected subcutaneously with 2×10^7 L540 cells or orthotopically with 1×10^7 MDA-MB-435 or MDA-MB-231 cells. BALB/c mice were injected subcutaneously with 1×10^6 Meth A cells. […] Animals were monitored three times a week for tumor size and body weight. […]

[8] = tested on: ABAE cells with exposed PS; assay: Live-cell binding assay on LPC-treated endothelial cells; type: cell-based, bovine
Experimental: Adult bovine aortic endothelial (ABAE) cells were maintained in DMEM supplemented with 10% FBS and 2 mM L-glutamine. ABAE cells were removed from subconfluent cultures by brief exposure to 0.25% trypsin/0.02% EDTA, and 8-well chamber slides were seeded with 2×10^4 cells/well. Following overnight culture, cells were washed gently with PBS and treated with 200 μM lysophosphatidylcholine (LPC) to induce PS exposure.
PS exposure was determined by immunofluorescence staining. Cells were washed thoroughly in PBS, fixed in 4% paraformaldehyde (w/v), and incubated with a biotin-conjugated anti-mouse secondary antibody. Next, cells were incubated with FITC-conjugated streptavidin (Jackson Immunoresearch) to detect antibody binding. Cells were then permeablized with 0.1% Triton-X100 in PBS and counterstained with Texas Red-conjugated phalloidin (Molecular Probes, Eugene, Oreg.), and 4′, 6-diamidino-2-phenylindole (DAPI; Molecular Probes). Images were captured using a Coolsnap digital camera (Photometrics, Tucson, Ariz.) mounted on a Nikon microscope and processed with MetaVue software (Universal Imaging Corporation, Downingtown, Pa.).
The area of antibody binding was determined using MetaVue image analysis software, which is able to quantify the number of illuminated pixels in an image. Images of FITC fluorescence were used to quantify antibody binding. Corresponding images of DAPI fluorescence were used to normalize the FITC images for the number of cells present in the field. A small FITC/DAPI ratio indicates a small antibody binding area, whereas a large FITC/DAPI ratio indicates a large binding area. The FITC/DAPI ratios were used to determine increases or decreases in antibody binding area relative to a basal amount of antibody binding under the selected conditions. Five images at 200× magnification were used for each analysis. Data are presented as average relative FITC/DAPI ratios with error bars representing the standard deviation.
Cells were then washed, fixed, and stained with fluorescent markers to visualize binding of antibody to the cell surface.

mCMV RVG102 = assay: Survival of mCMV-infected mice; type: in vivo, mouse; details: past 90 days post infection; untreated 25%
[9] = Phospholipid specificity ELISA; type: binding
Experimental: The specificity of the antibodies was determined by ELISA using plates coated with the following phospholipids: PS, phosphatidylserine; PE, phosphatidylethanolamine; PI, phosphatidylinositol; PA, phosphatidic acid; PG, phosphatidylglycerol; PC, phosphatidylcholine; CL, cardiolipin; and SM, sphingomyelin.

ABAE cells = assay: Induction of PS exposure, 125I-annexin V binding; type: cell-based, bovine; details: ABAE and bEnd.3 cells, immunohistochemically
Experimental: All reagents were diluted in medium containing 10% serum and incubated with the cells at 37° C. for 24 h.
To study the effect of hypoxia, cells were seeded on 24 well plates and were incubated in a humidified normoxic atmosphere (21% O2, 5% CO2) for 48 h before being transferred to a humidified hypoxic atmosphere (1% O2, 5% CO2, 94% N2) in a sealed chamber (Billups Rothenberg Inc., Del Mar, Ca). Cells were incubated in a hypoxic chamber for 24 h at 37° C. and were then returned to a normoxic environment for 4 h at 37° C. The cells were compared to a parallel culture from an identical passage, seeded on the same day and maintained entirely under normoxic conditions. In some studies, IL-1α (10 ng/ml) and TNFα (20 ng/ml) were added to the medium before transfer to the hypoxic chamber.
After treatment with the reagents described above, treated and control cells were incubated with 7.1 pmoles of ^125I-labeled annexin V (200 μl/well) in the binding buffer. After 2 h incubation at room temperature, cells were washed extensively and dissolved in 0.5 M of NaOH. The entire volume of 0.5 ml was transferred to plastic tubes and counted in a gamma counter. Non-specific binding was determined in the presence of 5 mM EDTA and was subtracted from experimental values. The results were expressed as net pmoles of cell-bound annexin V, normalized per 1×10^6 cells.
Maximal binding of annexin V was determined on cells simultaneously treated with actinomycin D and TNFα (50 ng/ml of each component). As has been previously reported, these agents cause apoptosis and PS exposure in 90-100% of endothelial cells (Lucas et al., 1998). Basal binding of ^125I-annexin V to untreated cells was determined in the presence of medium with 10% serum. The amount of ^125I-annexin V that bound to the untreated cultures was subtracted from that in the treated cultures. Exposure of PS was calculated according to the following formula: cell-bound annexin V (pmoles) under experimental conditions divided by maximal annexin V binding (pmoles), multiplied by 100. Each study was performed in duplicate and was performed at least three times. Mean values were calculated. The SE of the mean values from three separate experiments was less than 5%.

bEnd.3 endothelial cells = assay: H2O2 induction of PS, anti-PS staining and Trypan Blue exclusion

Compound: CC(=O)O[C@@]12CO[C@@H]1C[C@H](O)[C@@]1(C)C(=O)[C@H](O)C3=C(C)[C@@H](OC(=O)[C@H](O)[C@@H](NC(=O)OC(C)(C)C)c4ccccc4)C[C@@](O)([C@@H](OC(=O)c4ccccc4)[C@H]21)C3(C)C [docetaxel]
- tumor vessels that expose anionic phospholipids (tumor vessels): 60%
- externalization of anionic phospholipids on HUVEC (HUVEC and HMVEC; 20 pM): caused anionic phospholipids to be externalized without inducing apoptosis
- 3G4 binding vs untreated cells (HUVEC and HMVEC; 10 nM, 24 hrs): significant increase in 3G4 binding
- 3G4 binding vs untreated cells [1]: significant increase in 3G4 binding

Compound: Nc1ccn([C@@H]2O[C@H](CO)[C@@H](O)C2(F)F)c(=O)n1 [gemcitabine, reference compound]
- anti-tumor effect (tumor weight) [2]: significant anti-tumor effect

Compound: ch3G4: Human-mouse chimeric (human IgG1) version of 3G4, termed bavituximab
- FACS shift vs uninfected cells [3]: significant shift
- tumor growth (WiDr (colon carcinoma)): slowed tumor growth to essentially the same degree
- tumor homing of radiolabeled antibody [4]: shown to home to syngeneic prostatic tumors in rats
- tumor perfusion [4]: Reduced tumor perfusion
- binding to nicked hβ2GPI coated on microtiter plates (human β2GPI): binds nicked hβ2GPI as well as hβ2GPI
- binding to phospholipid-coated ELISA plates [5]: bound at least as did well as the murine 3G4
- No adverse effect level (NOAEL) (Monkey safety studies): approximately 10 mg/kg/week
- Serum cofactor? [6]: Yes
- safety in atherosclerotic rabbits ([7]; listed as chimeric version of the 3G4 antibody): did not exacerbate aortic atherosclerotic lesions
- safety in atherosclerotic rabbits ([7]; listed as humanized 3G4 antibody): shown to be safe
- tumor growth vs control (MDA-MB-435 breast tumors): effectively retarded tumor growth
- binding to LPC-treated ABAE cells ([8]; 10% MS plus purified hβ2GPI): widespread binding
- binding to LPC-treated ABAE cells ([8]; 10% MS, no hβ2GPI): no antibody binding was detected
- survival (mCMV RVG102): 80%
- Relative Strength of Reactivity on ELISA [9]: PS = PA = PI = PG = CL >> PE

Compound: OO [Hydrogen peroxide, hydrogen peroxide]
- cells that bound biotinylated annexin V (ABAE cells): More than 70%
- cell viability (bEnd.3 endothelial cells; H2O2 at high concentrations): 50-60%
- cell viability (bEnd.3 endothelial cells; low levels of H2O2, identical to untreated control): 95%
